Data taken from patent US10004701B2, “Methods and compositions for treating infection” (UNIVERSITY OF ROCHESTER, priority 2012, dated 2018).
Counter-ions that a name gives are not always drawn. Like-named read-outs stand apart in the source and are kept apart here.

What was measured:
Assay in all cases: AK assay 384-well format, Prestwick library screening
[1] = test system: E. faecium; type: cell-based, Enterococcus faecium; conditions: 50 μM final drug concentration; for fold induction at 50 µM: Enterococcus faecium, 3 h
[2] = test system: S. aureus strain USA300-0114; type: cell-based, Staphylococcus aureus; conditions: 50 μM final drug concentration; for fold induction at 50 µM: Staphylococcus aureus, USA300, 3 h
[3] = test system: K. pneumoniae; type: cell-based, Klebsiella pneumoniae; conditions: 50 μM final drug concentration; for fold induction at 50 µM: Klebsiella pneumoniae, 3 h
[4] = test system: A. baumannii strain 98-37-09; type: cell-based, Acinetobacter baumannii; conditions: 50 μM final drug concentration; for fold induction at 50 µM: Acinetobacter baumannii, 983709, 3 h
[5] = test system: P. aeruginosa; type: cell-based, Pseudomonas aeruginosa; conditions: 50 μM final drug concentration; for fold induction at 50 µM: Pseudomonas aeruginosa, 3 h
[6] = test system: E. cloacae; type: cell-based, Enterobacter cloacae; conditions: 50 μM final drug concentration; for fold induction at 50 µM: Enterobacter cloacae, 3 h
[7] = test system: E. coli; type: cell-based, Escherichia coli; conditions: 50 μM final drug concentration; for fold induction at 50 µM: Escherichia coli, 3 h
[8] = cutoff for positive-scoring molecules 3-fold increase, read-out: AK-based Prestwick Library Screening Results, E. faecium (fold increase in extracellular AK activity)
[9] = cutoff for positive-scoring molecules 3-fold increase, read-out: AK-based Prestwick Library Screening Results, S. aureus (fold increase in extracellular AK activity)
[10] = cutoff for positive-scoring molecules 3-fold increase, read-out: AK-based Prestwick Library Screening Results, K. pneumoniae (fold increase in extracellular AK activity)
[11] = cutoff for positive-scoring molecules 3-fold increase, read-out: AK-based Prestwick Library Screening Results, A. baumannii (fold increase in extracellular AK activity)
[12] = cutoff for positive-scoring molecules 3-fold increase, read-out: AK-based Prestwick Library Screening Results, P. aeruginosa (fold increase in extracellular AK activity)
[13] = cutoff for positive-scoring molecules 3-fold increase, read-out: AK-based Prestwick Library Screening Results, E. cloacae (fold increase in extracellular AK activity)
[14] = cutoff for positive-scoring molecules 3-fold increase, read-out: AK-based Prestwick Library Screening Results, E. coli (fold increase in extracellular AK activity)
[15] = planktonic, cutoff for positive-scoring molecules 3-fold increase, read-out: AK-based Prestwick Library Screening Results, E. faecium (fold increase in extracellular AK activity)
[16] = planktonic, cutoff for positive-scoring molecules 3-fold increase, read-out: AK-based Prestwick Library Screening Results, S. aureus (fold increase in extracellular AK activity)
[17] = planktonic, cutoff for positive-scoring molecules 3-fold increase, read-out: AK-based Prestwick Library Screening Results, K. pneumoniae (fold increase in extracellular AK activity)
[18] = planktonic, cutoff for positive-scoring molecules 3-fold increase, read-out: AK-based Prestwick Library Screening Results, A. baumannii (fold increase in extracellular AK activity)
[19] = planktonic, cutoff for positive-scoring molecules 3-fold increase, read-out: AK-based Prestwick Library Screening Results, P. aeruginosa (fold increase in extracellular AK activity)
[20] = planktonic, cutoff for positive-scoring molecules 3-fold increase, read-out: AK-based Prestwick Library Screening Results, E. cloacae (fold increase in extracellular AK activity)
[21] = planktonic, cutoff for positive-scoring molecules 3-fold increase, read-out: AK-based Prestwick Library Screening Results, E. coli (fold increase in extracellular AK activity)

Structure (SMILES): CC(C)NCC(O)c1ccc2ccccc2c1 (stereo not shown) [Pronethalol hydrochloride]
- fold induction at 50 µM [1, 8]: 0.9
- fold induction at 50 µM [2, 9]: 0.6
- fold induction at 50 µM [3, 10]: 0.6
- fold induction at 50 µM [4, 11]: 0.6
- fold induction at 50 µM [5, 12]: 0.6
- fold induction at 50 µM [6, 13]: 0.9
- fold induction at 50 µM [7, 14]: 0.7

Structure (SMILES): OC(CCN1CCCC1)(c1ccccc1)C1CCCCC1 (stereo not shown) [Procyclidine hydrochloride]
- fold induction at 50 µM [1, 8]: 1.1
- fold induction at 50 µM [2, 9]: 1.2
- fold induction at 50 µM [3, 10]: 0.9
- fold induction at 50 µM [4, 11]: 1.1
- fold induction at 50 µM [5, 12]: 1.2
- fold induction at 50 µM [6, 13]: 1.8
- fold induction at 50 µM [7, 14]: 1.4

Structure (SMILES): CC/C(=C(/CC)c1ccc(O)cc1)c1ccc(O)cc1 [Diethylstilbestrol]
- fold induction at 50 µM [1, 15]: 1.1
- fold induction at 50 µM [2, 16]: 0.6
- fold induction at 50 µM [3, 17]: 0.7
- fold induction at 50 µM [4, 18]: 1.8
- fold induction at 50 µM [5, 19]: 0.8
- fold induction at 50 µM [6, 20]: 1.4
- fold induction at 50 µM [7, 21]: 0.9

Structure (SMILES): COc1ccc([C@@H]2CC(=O)c3c(O)cc(O[C@@H]4O[C@H](CO[C@@H]5O[C@@H](C)[C@H](O)[C@@H](O)[C@H]5O)[C@@H](O)[C@H](O)[C@H]4O)cc3O2)cc1O [Hesperidin]
- AK-based Prestwick Library Screening Results, E. faecium (fold increase in extracellular AK activity) ([1]; planktonic, […]): 1.1
- AK-based Prestwick Library Screening Results, S. aureus (fold increase in extracellular AK activity) ([2]; planktonic, […]): 1.3
- AK-based Prestwick Library Screening Results, K. pneumoniae (fold increase in extracellular AK activity) ([3]; planktonic, […]): 1.0
- AK-based Prestwick Library Screening Results, A. baumannii (fold increase in extracellular AK activity) ([4]; planktonic, […]): 1.2
- AK-based Prestwick Library Screening Results, P. aeruginosa (fold increase in extracellular AK activity) ([5]; planktonic, […]): 1.0
- AK-based Prestwick Library Screening Results, E. cloacae (fold increase in extracellular AK activity) ([6]; planktonic, […]): 1.4
- AK-based Prestwick Library Screening Results, E. coli (fold increase in extracellular AK activity) ([7]; planktonic, […]): 1.1

Structure (SMILES): CC(=O)O[C@]1(C(C)=O)CC[C@H]2[C@@H]3C=C(Cl)C4=CC(=O)[C@@H]5C[C@@H]5[C@]4(C)[C@H]3CC[C@@]21C [Cyproterone acetate]
- fold induction at 50 µM ([1]; planktonic E. faecium, positive cutoff 3-fold increase, read-out: AK-based Prestwick library screening result, E. faecium (fold increase in extracellular AK activity)): 1
- fold induction at 50 µM ([2]; planktonic S. aureus, positive cutoff 3-fold increase, read-out: AK-based Prestwick library screening result, S. aureus (fold increase in extracellular AK activity)): 0.6
- fold induction at 50 µM ([3]; planktonic K. pneumoniae, positive cutoff 3-fold increase, read-out: AK-based Prestwick library screening result, K. pneumoniae (fold increase in extracellular AK activity)): 0.7
- fold induction at 50 µM ([4]; planktonic A. baumannii, positive cutoff 3-fold increase, read-out: AK-based Prestwick library screening result, A. baumannii (fold increase in extracellular AK activity)): 0.8
- fold induction at 50 µM ([5]; planktonic P. aeruginosa, positive cutoff 3-fold increase, read-out: AK-based Prestwick library screening result, P. aeruginosa (fold increase in extracellular AK activity)): 0.8
- fold induction at 50 µM ([6]; planktonic E. cloacae, positive cutoff 3-fold increase, read-out: AK-based Prestwick library screening result, E. cloacae (fold increase in extracellular AK activity)): 1.4
- fold induction at 50 µM ([7]; planktonic E. coli, positive cutoff 3-fold increase, read-out: AK-based Prestwick library screening result, E. coli (fold increase in extracellular AK activity)): 0.8

Structure (SMILES): O=C1OCCN1/N=C/c1ccc([N+](=O)[O-])o1 [Furazolidone]
- fold induction at 50 µM [1, 15]: 0.9
- fold induction at 50 µM [2, 16]: 0.8
- fold induction at 50 µM [3, 17]: 3.2
- fold induction at 50 µM [4, 18]: 0.4
- fold induction at 50 µM [5, 19]: 0.6
- fold induction at 50 µM [6, 20]: 0.6
- fold induction at 50 µM [7, 21]: 0.8

Structure (SMILES): CC(NCCc1ccc(O)cc1)C(O)c1ccc(O)cc1 (stereo not shown) [Ritodrine hydrochloride]
- fold induction at 50 µM ([1]; planktonic E. faecium, cutoff for positive-scoring molecules 3-fold increase, read-out: AK-based Prestwick Library Screening Results, E. faecium (increase in extracellular AK activity)): 0.9
- fold induction at 50 µM ([2]; planktonic S. aureus, cutoff for positive-scoring molecules 3-fold increase, read-out: AK-based Prestwick Library Screening Results, S. aureus (increase in extracellular AK activity)): 0.5
- fold induction at 50 µM ([3]; planktonic K. pneumoniae, cutoff for positive-scoring molecules 3-fold increase, read-out: AK-based Prestwick Library Screening Results, K. pneumoniae (increase in extracellular AK activity)): 0.7
- fold induction at 50 µM ([4]; planktonic A. baumannii, cutoff for positive-scoring molecules 3-fold increase, read-out: AK-based Prestwick Library Screening Results, A. baumannii (increase in extracellular AK activity)): 0.8
- fold induction at 50 µM ([5]; planktonic P. aeruginosa, cutoff for positive-scoring molecules 3-fold increase, read-out: AK-based Prestwick Library Screening Results, P. aeruginosa (increase in extracellular AK activity)): 0.9
- fold induction at 50 µM ([6]; planktonic E. cloacae, cutoff for positive-scoring molecules 3-fold increase, read-out: AK-based Prestwick Library Screening Results, E. cloacae (increase in extracellular AK activity)): 0.9
- fold induction at 50 µM ([7]; planktonic E. coli, cutoff for positive-scoring molecules 3-fold increase, read-out: AK-based Prestwick Library Screening Results, E. coli (increase in extracellular AK activity)): 0.8

Structure (SMILES): CN1CCN(C2=Nc3ccccc3Oc3ccc(Cl)cc32)CC1 [Loxapine succinate]
- fold induction at 50 µM ([1]; planktonic E. faecium, 384-well, cutoff for positive-scoring molecules 3-fold increase, read-out: AK-based Prestwick Library Screening Results: E. faecium (increase in extracellular AK activity)): 0.9
- fold induction at 50 µM ([2]; planktonic S. aureus, 384-well, cutoff for positive-scoring molecules 3-fold increase, read-out: AK-based Prestwick Library Screening Results: S. aureus (increase in extracellular AK activity)): 1.1
- fold induction at 50 µM ([3]; planktonic K. pneumoniae, 384-well, cutoff for positive-scoring molecules 3-fold increase, read-out: AK-based Prestwick Library Screening Results: K. pneumoniae (increase in extracellular AK activity)): 1
- fold induction at 50 µM ([4]; planktonic A. baumannii, 384-well, cutoff for positive-scoring molecules 3-fold increase, read-out: AK-based Prestwick Library Screening Results: A. baumannii (increase in extracellular AK activity)): 1
- fold induction at 50 µM ([5]; planktonic P. aeruginosa, 384-well, cutoff for positive-scoring molecules 3-fold increase, read-out: AK-based Prestwick Library Screening Results: P. aeruginosa (increase in extracellular AK activity)): 0.9
- fold induction at 50 µM ([6]; planktonic E. cloacae, 384-well, cutoff for positive-scoring molecules 3-fold increase, read-out: AK-based Prestwick Library Screening Results: E. cloacae (increase in extracellular AK activity)): 1.3
- fold induction at 50 µM ([7]; planktonic E. coli, 384-well, cutoff for positive-scoring molecules 3-fold increase, read-out: AK-based Prestwick Library Screening Results: E. coli (increase in extracellular AK activity)): 1

Structure (SMILES): CN1CC[C@]23c4ccccc4N[C@H]1[C@]21CCN(C)[C@H]3Nc2ccccc21 [Calycanthine]
- AK-based Prestwick Library Screening Results, E. faecium (increase in extracellular AK activity) ([1]; planktonic E. faecium, […]): 0.8
- AK-based Prestwick Library Screening Results, S. aureus (increase in extracellular AK activity) ([2]; planktonic S. aureus, […]): 0.6
- AK-based Prestwick Library Screening Results, K. pneumoniae (increase in extracellular AK activity) ([3]; planktonic K. pneumoniae, […]): 0.7
- AK-based Prestwick Library Screening Results, A. baumannii (increase in extracellular AK activity) ([4]; planktonic A. baumannii, […]): 0.8
- AK-based Prestwick Library Screening Results, P. aeruginosa (increase in extracellular AK activity) ([5]; planktonic P. aeruginosa, […]): 0.8
- AK-based Prestwick Library Screening Results, E. cloacae (increase in extracellular AK activity) ([6]; planktonic E. cloacae, […]): 1.2
- AK-based Prestwick Library Screening Results, E. coli (increase in extracellular AK activity) ([7]; planktonic E. coli, […]): 0.9

Structure (SMILES): CCN(CC)CCOC(=O)C1(c2ccc([N+](=O)[O-])cc2)CCCC1.Cl [Nitrocaramiphen hydrochloride]
- AK-based Prestwick library screening result, E. faecium (fold increase in extracellular AK activity) ([1]; planktonic E. faecium, […]): 0.9
- AK-based Prestwick library screening result, S. aureus (fold increase in extracellular AK activity) ([2]; planktonic S. aureus, […]): 0.6
- AK-based Prestwick library screening result, K. pneumoniae (fold increase in extracellular AK activity) ([3]; planktonic K. pneumoniae, […]): 0.7
- AK-based Prestwick library screening result, A. baumannii (fold increase in extracellular AK activity) ([4]; planktonic A. baumannii, […]): 0.7
- AK-based Prestwick library screening result, P. aeruginosa (fold increase in extracellular AK activity) ([5]; planktonic P. aeruginosa, […]): 0.8
- AK-based Prestwick library screening result, E. cloacae (fold increase in extracellular AK activity) ([6]; planktonic E. cloacae, […]): 1.2
- AK-based Prestwick library screening result, E. coli (fold increase in extracellular AK activity) ([7]; planktonic E. coli, […]): 0.9
